{
  "source": "patent US8685658B2",
  "about": "“Compositions and methods for the treatment of diseases associated with aberrant cilia assembly and regulation” (Fox Chase Cancer Center, priority 2006, dated 2014)",
  "key": {"[1]": {"target": "T1, AurA (Homo sapiens, UniProt O14965)", "T1 construct": "endogenous AurA immunoprecipitated from mammalian cells; endogenous in cells; host or cells: hTERT-RPE1", "T1 sequence (O14965 1-403)": "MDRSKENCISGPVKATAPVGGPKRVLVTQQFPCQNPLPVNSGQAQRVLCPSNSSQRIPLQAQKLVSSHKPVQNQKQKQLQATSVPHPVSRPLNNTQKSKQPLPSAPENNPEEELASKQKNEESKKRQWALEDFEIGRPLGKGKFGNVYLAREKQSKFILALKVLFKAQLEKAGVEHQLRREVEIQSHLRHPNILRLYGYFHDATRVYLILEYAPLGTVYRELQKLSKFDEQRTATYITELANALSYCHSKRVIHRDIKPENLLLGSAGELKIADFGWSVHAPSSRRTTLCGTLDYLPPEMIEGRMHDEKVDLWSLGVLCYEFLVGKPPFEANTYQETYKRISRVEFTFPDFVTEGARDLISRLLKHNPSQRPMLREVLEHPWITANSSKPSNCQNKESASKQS", "experiment": "AurA activation and HEF1 phosphorylation in serum-stimulated hTERT-RPE1 cells (Western blot)", "assay_type": "cell-based", "details": "vs DMSO, 2 and 24 hour time points after serum", "description": "For microinjection, recombinant glutathione-S-transferase (GST), GST fused AurA mutants T288A and D274N) produced from BL21 (DE3) bacteria were purified using the MicroSpin GST Purification Module (Amersham Biotech.). Purified recombinant AurA was purchased from Upstate; this AurA was pre-activated based on incubation with ATP. […] To prepare lysates for Western blotting and IP, mammalian cells were disrupted by M-PER lysis buffer (Pierce) supplemented with EDTA-free protease inhibitor cocktail (Roche). Lysates used for IP were incubated overnight with antibody at 4° C., subsequently incubated for 2 hours with protein A/G-sepharose (Pierce), washed, and resolved by SDS-PAGE. Western blotting was performed using standard procedures and proteins visualized using the West-Pico system (Pierce). Antibodies used included mouse monoclonal antibody (mAb) anti-HEF1 2G9 (Pugacheva and Golemis, 2005), anti-α-tubulin mAb (Sigma), anti-AurA (BD Bioscience) for Western blotting, anti-AurA rabbit polyclonal (Cell Signaling) for IP, anti-Phospho-AurA/T288 (BioLegend), anti-Phospho-AurA/T288 (Cell Signaling), anti-HDAC6 rabbit polyclonal (Upstate; 1:5000), anti-HDAC2 rabbit polyclonal (Invitrogen) and mAb anti-β-actin (AC15, Sigma), anti-IFT88 and anti-IFT20. Secondary horseradish peroxidase (HRP)-conjugated antibodies were from Amersham Biotech. […]"}, "[2]": {"target": "AurB (Homo sapiens, UniProt Q96GD4)", "sequence (Q96GD4 whole entry)": "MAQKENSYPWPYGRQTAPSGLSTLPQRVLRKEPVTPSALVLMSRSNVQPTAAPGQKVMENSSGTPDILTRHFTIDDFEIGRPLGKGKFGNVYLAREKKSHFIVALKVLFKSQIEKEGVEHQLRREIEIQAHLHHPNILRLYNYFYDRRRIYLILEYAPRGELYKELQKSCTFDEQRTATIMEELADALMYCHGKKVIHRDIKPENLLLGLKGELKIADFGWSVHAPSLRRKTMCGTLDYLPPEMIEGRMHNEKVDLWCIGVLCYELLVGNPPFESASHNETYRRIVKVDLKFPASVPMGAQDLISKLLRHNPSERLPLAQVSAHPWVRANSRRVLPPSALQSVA", "details": "cited from earlier work"}, "[3]": {"target": "T2, AurA-HDAC6 (Homo sapiens, UniProt O14965)", "T2 construct": "endogenous in cells; host or cells: hTERT-RPE1", "T2 sequence (O14965 1-403)": "T1 sequence (O14965 1-403)", "T2 sequence (Q9UBN7 1-1215 partner)": "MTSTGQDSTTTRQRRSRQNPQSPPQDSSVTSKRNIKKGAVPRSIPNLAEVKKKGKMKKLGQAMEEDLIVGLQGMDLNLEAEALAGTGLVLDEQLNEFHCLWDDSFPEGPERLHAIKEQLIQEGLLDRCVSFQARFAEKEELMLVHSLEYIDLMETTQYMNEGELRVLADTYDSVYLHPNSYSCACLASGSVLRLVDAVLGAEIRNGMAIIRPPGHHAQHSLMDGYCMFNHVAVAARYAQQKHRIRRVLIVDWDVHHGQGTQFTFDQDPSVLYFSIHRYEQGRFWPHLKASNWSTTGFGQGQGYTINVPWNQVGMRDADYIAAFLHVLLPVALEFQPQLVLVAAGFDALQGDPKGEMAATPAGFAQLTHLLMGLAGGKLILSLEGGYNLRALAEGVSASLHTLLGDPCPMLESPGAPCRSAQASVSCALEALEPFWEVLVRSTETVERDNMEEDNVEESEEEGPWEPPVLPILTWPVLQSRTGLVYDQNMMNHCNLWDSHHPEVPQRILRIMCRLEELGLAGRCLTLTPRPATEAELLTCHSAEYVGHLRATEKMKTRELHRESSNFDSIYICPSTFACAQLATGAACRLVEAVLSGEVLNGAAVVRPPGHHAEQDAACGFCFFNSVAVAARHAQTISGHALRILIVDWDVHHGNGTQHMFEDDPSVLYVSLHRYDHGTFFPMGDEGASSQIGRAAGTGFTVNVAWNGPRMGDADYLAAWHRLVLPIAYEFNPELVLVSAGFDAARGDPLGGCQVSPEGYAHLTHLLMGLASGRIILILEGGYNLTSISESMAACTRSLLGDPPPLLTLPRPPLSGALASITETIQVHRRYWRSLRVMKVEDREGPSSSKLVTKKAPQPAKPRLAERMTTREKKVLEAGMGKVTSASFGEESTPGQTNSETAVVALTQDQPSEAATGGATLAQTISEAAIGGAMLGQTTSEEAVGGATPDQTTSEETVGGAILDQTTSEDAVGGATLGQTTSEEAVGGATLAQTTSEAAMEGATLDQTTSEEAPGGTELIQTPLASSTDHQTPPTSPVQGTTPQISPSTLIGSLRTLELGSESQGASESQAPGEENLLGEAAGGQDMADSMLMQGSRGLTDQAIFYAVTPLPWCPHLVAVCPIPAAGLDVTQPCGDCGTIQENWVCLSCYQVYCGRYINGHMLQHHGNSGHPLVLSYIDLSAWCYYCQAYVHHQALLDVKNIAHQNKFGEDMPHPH", "experiment": "AurA-HDAC6 coimmunoprecipitation from hTERT-RPE1 cells", "assay_type": "cell-based", "details": "pre-treatment of cells with inhibitor", "description": "For microinjection, recombinant glutathione-S-transferase (GST), GST fused AurA mutants T288A and D274N) produced from BL21 (DE3) bacteria were purified using the MicroSpin GST Purification Module (Amersham Biotech.). Purified recombinant AurA was purchased from Upstate; this AurA was pre-activated based on incubation with ATP. […] To prepare lysates for Western blotting and IP, mammalian cells were disrupted by M-PER lysis buffer (Pierce) supplemented with EDTA-free protease inhibitor cocktail (Roche). Lysates used for IP were incubated overnight with antibody at 4° C., subsequently incubated for 2 hours with protein A/G-sepharose (Pierce), washed, and resolved by SDS-PAGE. Western blotting was performed using standard procedures and proteins visualized using the West-Pico system (Pierce). Antibodies used included mouse monoclonal antibody (mAb) anti-HEF1 2G9 (Pugacheva and Golemis, 2005), anti-α-tubulin mAb (Sigma), anti-AurA (BD Bioscience) for Western blotting, anti-AurA rabbit polyclonal (Cell Signaling) for IP, anti-Phospho-AurA/T288 (BioLegend), anti-Phospho-AurA/T288 (Cell Signaling), anti-HDAC6 rabbit polyclonal (Upstate; 1:5000), anti-HDAC2 rabbit polyclonal (Invitrogen) and mAb anti-β-actin (AC15, Sigma), anti-IFT88 and anti-IFT20. Secondary horseradish peroxidase (HRP)-conjugated antibodies were from Amersham Biotech."}, "[4]": {"target": "FGFR1 (Homo sapiens, UniProt P11362)", "sequence (P11362 22-822, species assumed)": "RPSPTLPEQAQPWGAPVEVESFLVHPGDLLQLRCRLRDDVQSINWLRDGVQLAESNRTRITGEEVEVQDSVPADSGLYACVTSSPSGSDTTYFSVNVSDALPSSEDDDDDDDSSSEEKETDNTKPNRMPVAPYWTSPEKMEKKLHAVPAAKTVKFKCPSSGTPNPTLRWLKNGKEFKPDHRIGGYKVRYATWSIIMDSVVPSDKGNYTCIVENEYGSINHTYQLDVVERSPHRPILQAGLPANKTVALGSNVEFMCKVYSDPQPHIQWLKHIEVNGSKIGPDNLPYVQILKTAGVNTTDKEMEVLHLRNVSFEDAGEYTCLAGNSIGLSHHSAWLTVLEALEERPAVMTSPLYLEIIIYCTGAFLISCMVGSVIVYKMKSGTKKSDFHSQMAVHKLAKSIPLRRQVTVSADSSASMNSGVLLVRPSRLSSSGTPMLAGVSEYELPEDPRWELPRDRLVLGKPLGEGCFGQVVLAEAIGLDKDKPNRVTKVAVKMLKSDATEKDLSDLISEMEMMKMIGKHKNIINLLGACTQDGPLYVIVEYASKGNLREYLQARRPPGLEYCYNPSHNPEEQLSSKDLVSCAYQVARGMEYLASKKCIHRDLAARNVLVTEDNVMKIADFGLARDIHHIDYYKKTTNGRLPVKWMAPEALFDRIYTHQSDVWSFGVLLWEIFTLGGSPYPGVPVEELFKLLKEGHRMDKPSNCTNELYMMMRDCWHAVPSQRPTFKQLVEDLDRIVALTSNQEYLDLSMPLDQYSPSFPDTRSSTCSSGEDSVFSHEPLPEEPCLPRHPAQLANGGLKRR", "details": "cited from earlier work"}, "[5]": {"test_system": "hTERT-RPE1 cells", "experiment": "serum-induced ciliary disassembly in ciliated hTERT-RPE1 cells", "assay_type": "cell-based", "description": "hTERT-RPE1 cells were grown in DMEM with 10% fetal bovine serum (FBS). For analysis of ciliary disassembly, cells were plated at 30% confluence in plates containing glass cover slips, and starved for 48 hours (in Opti-MEM or regular DMEM, without added serum) to induce cilia formation, followed by treatments described hereinbelow. For siRNA treatment, cells were initially plated in DMEM/10% FBS in plates containing cover slips, and 12 hours later siRNA transfection was performed in Opti-MEM with Oligofectamine (Invitrogen) according to manufacturer recommendations, and fixed 48 hours after transfection, following treatments indicated in Results. The remaining cells on plate were lysed, then either directly analyzed by Western blot analysis, or used for immunoprecipitation (IP)-kinase reaction to measure AurA activity.\nCells were fixed with 4% paraformaldehyde (10 min) then methanol (5 min), permeabilized with 1% Triton-X100 in PBS, blocked in 1×PBS, 3% BSA, and incubated with antibodies using standard protocols. Primary antibodies included rabbit polyclonal anti-Aurora A and anti-phospho-AuroraA/T288, (Cell Signaling), mouse mAb anti-HEF1 (14A11), polyclonal anti-γ-tubulin (Sigma), anti-α-tubulin mAb (Sigma), anti-acetylated α-tubulin mAb (clone 6-11B-1, Sigma, and clone K(Ac)40 Biomol), anti-IFT88 and anti-IFT20 (gifts of G. Pazour), mouse anti-glutamylated tubulin (Sigma), and anti-HDAC6 (Upstate). Secondary antibodies labeled with Alexa-488, Alexa-568, and Alexa-633, and TOTO-3 dye to stain DNA, were from Molecular Probes/Invitrogen. DNA was co-stained in some experiments by propidium iodine (Sigma) or Draq5 (Alexis), Confocal microscopy was performed using a Radiance 2000 laser scanning confocal microscope ((Carl Zeiss, Thornwood, N.Y.) coupled to a Nikon Eclipse E800 upright microscope (Nikon). Statistical analysis of data by one-way ANOVA was performed using GraphPad Instat 3.0 (San Diego, Calif.)."}},
  "data": [
    {"smiles": "CCc1cccc(CC)c1NC(=O)N1Cc2n[nH]c(NC(=O)c3ccc(N4CCN(C)CC4)cc3)c2C1", "note": "[PHA-680632]", "values": [
      {"measurement": "HEF1 phosphorylation (115 kDa form)", "setting": "[1]", "value": "blocks"},
      {"measurement": "appearance of T288-phospho-AurA", "setting": "[1]", "value": "blocks appearance"},
      {"measurement": "IC50", "setting": "[2]", "value": 0.185, "unit": "µM"},
      {"measurement": "AurA-HDAC6 coimmunoprecipitation", "setting": "[3]", "value": "not eliminated"},
      {"measurement": "IC50", "setting": "[4]", "value": 0.39, "unit": "µM"},
      {"measurement": "second wave of ciliary disassembly, at the time of mitosis", "setting": "[5]; 500 nM, 18-24 hours after serum", "value": "completely eliminated"},
      {"measurement": "disassembly of cilia after serum stimulation", "setting": "[5]; cells pre-treated for 3 hours with 500 nM, tracked 24 hours post serum", "value": "strongly reduced"}
    ]}
  ]
}
